Reference: patent US9012412B2, “Dual SGLT1/SGLT2 inhibitors” (Janssen Pharmaceutica NV, priority 2013, dated 2015)

Assays:
[1] = target: T1, human SGLT1 (Homo sapiens, UniProt P13866); assay: Sodium-dependent 14C-methyl-α-D-glucopyranoside uptake in CHO-K1 cells stably expressing human SGLT1; type: cell-based; settings: for IC50: 14C-methyl-α-D-glucopyranoside uptake; for inhibition at 3 µM: compound at 3 μM; for inhibition at 0.1 µM: compound at 0.1 μM
T1 construct: expressed in transfected cells
T1 sequence (P13866 1-664): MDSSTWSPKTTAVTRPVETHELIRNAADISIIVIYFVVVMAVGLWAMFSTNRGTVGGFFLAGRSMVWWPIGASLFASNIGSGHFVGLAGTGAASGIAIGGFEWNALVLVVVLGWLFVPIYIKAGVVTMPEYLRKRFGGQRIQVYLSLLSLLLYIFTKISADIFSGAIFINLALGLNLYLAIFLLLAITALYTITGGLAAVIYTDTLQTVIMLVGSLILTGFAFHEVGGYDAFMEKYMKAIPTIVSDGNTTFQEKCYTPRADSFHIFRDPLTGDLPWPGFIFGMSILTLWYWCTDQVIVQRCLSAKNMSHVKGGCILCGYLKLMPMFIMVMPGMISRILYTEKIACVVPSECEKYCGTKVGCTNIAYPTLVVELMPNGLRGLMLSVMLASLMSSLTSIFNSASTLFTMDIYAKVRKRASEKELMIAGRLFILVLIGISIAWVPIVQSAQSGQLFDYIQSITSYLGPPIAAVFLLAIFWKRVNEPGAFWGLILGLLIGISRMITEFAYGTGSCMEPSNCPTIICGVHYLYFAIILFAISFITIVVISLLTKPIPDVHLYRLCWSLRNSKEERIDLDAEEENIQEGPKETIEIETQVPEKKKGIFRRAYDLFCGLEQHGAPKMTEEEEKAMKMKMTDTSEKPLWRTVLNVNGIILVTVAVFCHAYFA
Procedure: (§1) SGLT1 and SGLT2 were cloned in form of cDNA from human small intestine (Genbank M24847), and from human kidney (Genbank M95549), respectively. Subsequently, each full cDNA was subcloned into pcDNA with each construct's integrity verified through follow-on sequencing. To generate CHO-K1 cells that stably express human SGLT1 or human SGLT2 CHO-K1 cells were transfected using DMRIE-C reagent (Life Technologies, Gaithersburg, Md.). Transfected cells were then selected in the presence of 500 μg/ml of the antibiotic G418 (Gibco-BRL, Grand Island, N.Y.). Individual clones were then characterized using the following cell-based assay for sodium-dependent glucose transport.
(§2) First, cell lines stably expressing human SGLT1 or SGLT2 were seeded at a density of 65,000 cells per well per 200 μl cell culture medium with 10 mM of NaButyrate (Aldrich Catalog No. 30341-0) in a 96-well flat bottom plate (COSTAR, Catalog No. 3903). For human SGLT1 or SGLT2 expressing CHO-K1 cells the culture medium comprised Ham's F-12 (Invitrogen Catalog No. 31765), Fetal Bovine Serum (Invitrogen Catalog No. 16000), G418 (Geneticin, Cellgro Catalog No. 30234-CI), Phlorizidin (Sigma Catalog No. P3449), DPBS (Cellgro Catalog No. 21030-CV), ^14C-methyl-α-D-glucopyranoside (Amersham Catalog No. CFB 76), and Methyl-α-D-glucopyranoside (Sigma Catalog No. M-9376).
(§3) The cells were allowed to incubate for 24 hours. Subsequently, the medium was aspirated from the plates and the cells were washed one time with 150 μl assay buffer and incubate 15 min with another 150 μl assay buffer which comprised 50 mM HEPES pH 7.4, 20 mM Tris Base, 5 mM KCl, 1 mM MgCl2, 1 mM CaCl2, and 137 mM NaCl. After removing the wash buffer, 40 μl assay buffer and 10 μl compound solution was added to each well, which was again allowed to incubate for 10 min.
(§4) Following the 10 min incubation, 10 μl of serial diluted Methyl-α-D-glucopyranoside (Sigma Catalog No. M-9376) containing 0.07 μCi ^14C-methyl-α-D-glucopyranoside (Amersham Catalog No. CFB 76) was added to the appropriate well and allowed to incubate for another 2 hours. ^14C-methyl-α-D-glucopyranoside (Sigma Catalog No. M-9376, St. Louis, Mo.) is a non-metabolizable glucose analog specific for sodium-dependent glucose transporters as previously described by H. Peng and J. E. Lever in “Post-transcriptional regulation of Na+/glucose cotransporter (SGLT1) gene expression in LLC-PK1 cells,” J. Biol. Chem. 270, 20536-42 (1995).
(§5) Next, the plates were twice washed with 150 μl of ice-cold DPBS (Cellgro Catalog No. 21030) that was then completely removed from the plates before adding 50 μl of MicroScint™-20 (Packard Catalog No. 6013621) to each well for a 20 min or longer incubation time.
(§6) Sodium-dependent ^14C-methyl-α-D-glucopyranoside uptake was quantified by measuring radioactivity. Plates were counted in a TopCount (Packard, Meriden, Conn.). Results are reported as the %-inhibition or IC50 value from a representative experiment. Variability for the functional assay was typically within 20%.

[2] = target: T2, human SGLT2 (Homo sapiens, UniProt P31639); assay: Sodium-dependent 14C-methyl-α-D-glucopyranoside uptake in CHO-K1 cells stably expressing human SGLT2; type: cell-based; settings: for IC50: 14C-methyl-α-D-glucopyranoside uptake; for inhibition at 0.3 µM: compound at 0.3 μM; for inhibition at 0.1 µM: compound at 0.1 μM; for inhibition at 3 µM: compound at 3 μM
T2 construct: expressed in transfected cells
T2 sequence (P31639 1-672): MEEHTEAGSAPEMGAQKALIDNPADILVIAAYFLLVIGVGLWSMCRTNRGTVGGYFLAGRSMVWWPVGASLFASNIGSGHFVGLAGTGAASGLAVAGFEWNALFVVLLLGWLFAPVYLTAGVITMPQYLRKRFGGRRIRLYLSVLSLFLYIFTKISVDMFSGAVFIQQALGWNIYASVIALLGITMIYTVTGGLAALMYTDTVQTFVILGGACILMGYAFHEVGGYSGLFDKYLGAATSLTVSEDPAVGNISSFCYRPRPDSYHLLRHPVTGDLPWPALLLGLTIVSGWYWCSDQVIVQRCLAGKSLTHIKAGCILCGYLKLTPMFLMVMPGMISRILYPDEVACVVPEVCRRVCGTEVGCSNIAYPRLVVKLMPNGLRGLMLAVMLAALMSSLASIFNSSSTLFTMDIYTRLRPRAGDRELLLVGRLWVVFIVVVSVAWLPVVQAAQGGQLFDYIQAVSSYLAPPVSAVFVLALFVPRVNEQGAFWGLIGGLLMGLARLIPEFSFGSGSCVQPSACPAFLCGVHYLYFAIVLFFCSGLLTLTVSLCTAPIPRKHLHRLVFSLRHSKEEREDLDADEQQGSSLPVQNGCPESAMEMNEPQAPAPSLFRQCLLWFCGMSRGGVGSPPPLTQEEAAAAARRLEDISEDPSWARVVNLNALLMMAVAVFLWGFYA
Procedure: as §1, §2, §3, §4, §5, §6

Cc1cc(-c2cc[nH]n2)c([C@@H]2O[C@H](CO)C[C@H](O)[C@H]2O)cc1Cc1cc2ccccc2s1 [Cpd 27, (2S,3R,4S,6S)-2-(5-(benzo[b]thiophen-2-ylmethyl)-4-methyl-2-(1H-pyrazol-3-yl)phenyl)-6-(hydroxymethyl)tetrahydro-2H-pyran-3,4-diol]
IC50 [1]: 734 nM | IC50 [2]: 10 nM

Cc1cc(O)c([C@@H]2O[C@H](CO)C[C@H](O)[C@H]2O)cc1Cc1cc2cc(F)ccc2s1 [Cpd 19, (2S,3R,4S,6S)-2-(5-((5-fluorobenzo[b]thiophen-2-yl)methyl)-2-hydroxy-4-methylphenyl)-6-(hydroxymethyl)tetrahydro-2H-pyran-3,4-diol]
IC50 [1]: 220 nM | IC50 [2]: 41 nM

N#Cc1cc(O)c([C@@H]2O[C@H](CO)C[C@H](O)[C@H]2O)cc1Cc1cc2ccccc2s1 [Cpd 13, 2-(benzo[b]thiophen-2-ylmethyl)-4-((2S,3R,4S,6S)-3,4-dihydroxy-6-(hydroxymethyl)tetrahydro-2H-pyran-2-yl)-5-hydroxybenzonitrile]
inhibition at 3 µM [1]: 57% | inhibition at 0.3 µM [2]: 73%

CCc1ccc(Cc2cc([C@@H]3O[C@H](CO)C[C@H](O)[C@H]3O)c(O)cc2C)s1 [Cpd 32, (2S,3R,4S,6S)-2-(5-((5-ethylthiophen-2-yl)methyl)-2-hydroxy-4-methylphenyl)-6-(hydroxymethyl)tetrahydro-2H-pyran-3,4-diol]
IC50 [1]: 97 nM | IC50 [2]: 4 nM

OC[C@@H]1C[C@H](O)[C@@H](O)[C@H](c2cc(Cc3cc4ccccc4s3)c(C(F)(F)F)cc2O)O1 [Cpd 16, (2S,3R,4S,6S)-2-(5-(benzo[b]thiophen-2-ylmethyl)-2-hydroxy-4-(trifluoromethyl)phenyl)-6-(hydroxymethyl)tetrahydro-2H-pyran-3,4-diol]
IC50 [1]: 240 nM | inhibition at 0.1 µM [2]: 77%

C=C(c1cc2ccccc2s1)c1cc([C@@H]2O[C@H](CO)C[C@H](O)[C@H]2O)c(O)cc1C [Cpd 8, (2S,3R,4S,6S)-2-(5-(1-(benzo[b]thiophen-2-yl)vinyl)-2-hydroxy-4-methylphenyl)-6-(hydroxymethyl)tetrahydro-2H-pyran-3,4-diol]
inhibition at 3 µM [1]: 41% | inhibition at 3 µM [2]: 25%

C=Cc1cc(O)c([C@@H]2O[C@H](CO)C[C@H](O)[C@H]2O)cc1Cc1cc2ccccc2s1 [Cpd 17, (2S,3R,4S,6S)-2-(5-(benzo[b]thiophen-2-ylmethyl)-2-hydroxy-4-vinylphenyl)-6-(hydroxymethyl)tetrahydro-2H-pyran-3,4-diol]
inhibition at 0.1 µM [1]: 58% | inhibition at 0.1 µM [2]: 64%

Cc1cc(O)c([C@@H]2O[C@H](CO)C[C@H](O)[C@H]2O)cc1C(=O)c1cc2ccccc2s1 [Cpd 6, benzo[b]thiophen-2-yl(5-((2S,3R,4S,6S)-3,4-dihydroxy-6-(hydroxymethyl)-tetrahydro-2H-pyran-2-yl)-4-hydroxy-2-methylphenyl)methanone]
inhibition at 3 µM [1]: 0% | inhibition at 3 µM [2]: 0%

Cc1cc(O)c([C@@H]2O[C@H](CO)C[C@H](O)[C@H]2O)cc1C(C)(C)c1cc2ccccc2s1 [Cpd 15, (2S,3R,4S,6S)-2-(5-(2-(benzo[b]thiophen-2-yl)propan-2-yl)-2-hydroxy-4-methylphenyl)-6-(hydroxymethyl)tetrahydro-2H-pyran-3,4-diol]
inhibition at 3 µM [1]: 52% | inhibition at 0.3 µM [2]: 25%

COc1cc(O)c([C@@H]2O[C@H](CO)C[C@H](O)[C@H]2O)cc1C(C)(C)c1cc2ccccc2s1 [Cpd 14, (2S,3R,4S,6S)-2-(5-(2-(benzo[b]thiophen-2-yl)propan-2-yl)-2-hydroxy-4-methoxyphenyl)-6-(hydroxymethyl)tetrahydro-2H-pyran-3,4-diol]
inhibition at 0.3 µM ([1]; compound at 0.3 μM): 46% | inhibition at 0.3 µM [2]: 54%

COc1c([C@@H]2O[C@H](CO)C[C@H](O)[C@H]2O)cc(Cc2cc3ccccc3s2)c(C)c1C [Cpd 23, (2S,3R,4S,6S)-2-(5-(benzo[b]thiophen-2-ylmethyl)-2-methoxy-3,4-dimethylphenyl)-6-(hydroxymethyl)tetrahydro-2H-pyran-3,4-diol]
inhibition at 0.1 µM [1]: 50% | inhibition at 0.1 µM [2]: 70%
